Numbered stars: 1 amine (or outer) side, 2 acyl side, 3 side chain; on linkers, the order of the positions; unused ones are H or OH. Bridge positions count the residues as written; N and C are the ends. Square brackets hold non-standard residues; d marks the D form. Peptide text beside a SMILES is read from it. I, II: the chains in the order shown. Actinocin(9to1) = Cc1c2oc3c(C)ccc(C(=O)[*:1])c3nc-2c(C(=O)[*:2])c(N)c1=O; NMeV = CN[C@H](C(=O)O)C(C)C; Sar = CNCC(=O)O
System: freshly isolated NK cells
Test: Effect of different inhibitors on LO-CD2a mediated NK apoptosis (PI, flow cytometry)
Type: cell-based, human
Settings: 3 h pre-incubation with inhibitor, then 3 hours with LO-CD2a; 5 donors
Method: Effect of different inhibitors on LO-CD2a mediated NK apoptosis. 100 ul of freshly isolated NK cells (10^6/ml) were pre-incubated for 3 h at 37° C. in a 96 well plate with EGTA (20 mM), staurosporin (250 nM), quinacrine ([…]), cyclosporin A ([…]), FK506 ([…]), wortmannin (500 ng/ml), concanamycin A ([…]), cytochalasine D (1 mg/ml), actinomycin) (500 ng/ml final concentration), NOK-1 (25 mg/ml) or medium alone. After incubation for 3 hours with LO-CD2a ([…] final concentration) propidium iodide was added and cell mortality was analysed by flow cytometry.

Row | Compound | inhibition of LO-CD2a mediated NK apoptosis (in words)
1 | Cyclosporin A | partially inhibited
2 | O=C(O)CN(CCOCCOCCN(CC(=O)O)CC(=O)O)CC(=O)O [EGTA] | completely inhibited
3 | CCN(CC)CCCC(C)Nc1c2ccc(Cl)cc2nc2ccc(OC)cc12 (centres unmarked) [quinacrine, Quinacrine] | completely inhibited
4 | Cc1c2oc3c(C)ccc(C(=O)N[C@@H]4C(=O)N[C@H](C(C)C)C(=O)N5CCC[C@H]5C(=O)N(C)CC(=O)N(C)[C@@H](C(C)C)C(=O)O[C@@H]4C)c3nc-2c(C(=O)N[C@@H]2C(=O)N[C@H](C(C)C)C(=O)N3CCC[C@H]3C(=O)N(C)CC(=O)N(C)[C@@H](C(C)C)C(=O)O[C@@H]2C)c(N)c1=O [actinomycin D, Actinomycin D] (I: T[dV]P[Sar][NMeV] / II: T[dV]P[Sar][NMeV]; ester I:1-I:C, II:1-II:C; linker I:N-II:N via Actinocin(9to1)) | did not have any blocking effect
5 | C/C=C/[C@H]1O[C@@](O)([C@@H](C)[C@H](O)[C@H](C)[C@H]2OC(=O)/C(OC)=C/C(C)=C/[C@@H](C)[C@@H](O)[C@@H](CC)[C@@H](O)[C@H](C)C/C(C)=C/C=C/[C@@H]2OC)C[C@@H](O[C@H]2C[C@@H](O)[C@H](OC(N)=O)[C@@H](C)O2)[C@@H]1C [concanamycin A, Concanamycin A] | failed to inhibit apoptosis

Reference: patent publication US6692743B1, “Apoptosis of naive human NK cells by crosslinking of their FcγRIIIa molecules with a rat IgG2b (LO-CD2a/BTI-322) or its IgG1 humanized monoclonal antibody” (Universite Catholique de Louvain, priority 1998, dated 2004)
